test system: T47D; experiment: Cytotoxicity against human T47D cells assessed as effect on cell growth at 10 uM incubated for 48 hrs by sulforhodamine B assay; type: cell-based; settings: not given

SMILES	Activity
CN1C(=O)CC[C@H]1C(=O)NCc1cccc(C(F)(F)F)c1Cl [GSK1482160]	Non-Toxic
CN(Cc1ccccc1)C(=O)[C@@H]1CCC(=O)N1Cc1ccc(Cl)cc1Cl	Non-Toxic
COc1ccccc1CN1C(=O)[C@@H]2C/C(=C\N(C)C)C(=O)N2C1N(C)C (stereo not given in full)	Non-Toxic
O=C(NCc1ccccc1Cl)[C@@H]1CCC(=O)N1Cc1ccc(Cl)cc1	Non-Toxic

test system: HCC 2998; experiment: Cytotoxicity against human HCC2998 cells assessed as effect on cell growth at 10 uM incubated for 48 hrs by sulforhodamine B assay; type: cell-based; settings: hcc 2998, 48 h

SMILES	Activity
CN1C(=O)CC[C@H]1C(=O)NCc1cccc(C(F)(F)F)c1Cl [GSK1482160]	Non-Toxic
CN(Cc1ccccc1)C(=O)[C@@H]1CCC(=O)N1Cc1ccc(Cl)cc1Cl	Non-Toxic
COc1ccccc1CN1C(=O)[C@@H]2C/C(=C\N(C)C)C(=O)N2C1N(C)C (stereo not given in full)	Non-Toxic
O=C(NCc1ccccc1Cl)[C@@H]1CCC(=O)N1Cc1ccc(Cl)cc1	Non-Toxic

test system: SNB-75; experiment: Cytotoxicity against human SNB75 cells assessed as effect on cell growth at 10 uM incubated for 48 hrs by sulforhodamine B assay; type: cell-based; settings: snb-75, 48 h

SMILES	Activity
CN1C(=O)CC[C@H]1C(=O)NCc1cccc(C(F)(F)F)c1Cl [GSK1482160]	Non-Toxic
CN(Cc1ccccc1)C(=O)[C@@H]1CCC(=O)N1Cc1ccc(Cl)cc1Cl	Non-Toxic
COc1ccccc1CN1C(=O)[C@@H]2C/C(=C\N(C)C)C(=O)N2C1N(C)C (stereo not given in full)	Non-Toxic
O=C(NCc1ccccc1Cl)[C@@H]1CCC(=O)N1Cc1ccc(Cl)cc1	Non-Toxic

test system: OVCAR-8; experiment: Cytotoxicity against human OVCAR8 cells assessed as effect on cell growth at 10 uM incubated for 48 hrs by sulforhodamine B assay; type: cell-based; settings: ovcar-8, 48 h

SMILES	Activity
CN1C(=O)CC[C@H]1C(=O)NCc1cccc(C(F)(F)F)c1Cl [GSK1482160]	Non-Toxic
CN(Cc1ccccc1)C(=O)[C@@H]1CCC(=O)N1Cc1ccc(Cl)cc1Cl	Non-Toxic
COc1ccccc1CN1C(=O)[C@@H]2C/C(=C\N(C)C)C(=O)N2C1N(C)C (stereo not given in full)	Non-Toxic
O=C(NCc1ccccc1Cl)[C@@H]1CCC(=O)N1Cc1ccc(Cl)cc1	Non-Toxic

test system: MDA-MB-468; experiment: Cytotoxicity against human MDA-MB-468 cells assessed as effect on cell growth at 10 uM incubated for 48 hrs by sulforhodamine B assay; type: cell-based; settings: mda-mb-468, 48 h

SMILES	Activity
CN1C(=O)CC[C@H]1C(=O)NCc1cccc(C(F)(F)F)c1Cl [GSK1482160]	Non-Toxic
CN(Cc1ccccc1)C(=O)[C@@H]1CCC(=O)N1Cc1ccc(Cl)cc1Cl	Non-Toxic
COc1ccccc1CN1C(=O)[C@@H]2C/C(=C\N(C)C)C(=O)N2C1N(C)C (stereo not given in full)	Non-Toxic
O=C(NCc1ccccc1Cl)[C@@H]1CCC(=O)N1Cc1ccc(Cl)cc1	Non-Toxic

test system: NCI-H322M; experiment: Cytotoxicity against human NCI-H322M cells assessed as effect on cell growth at 10 uM incubated for 48 hrs by sulforhodamine B assay; type: cell-based; settings: not given

SMILES	Activity
CN1C(=O)CC[C@H]1C(=O)NCc1cccc(C(F)(F)F)c1Cl [GSK1482160]	Non-Toxic
CN(Cc1ccccc1)C(=O)[C@@H]1CCC(=O)N1Cc1ccc(Cl)cc1Cl	Non-Toxic
COc1ccccc1CN1C(=O)[C@@H]2C/C(=C\N(C)C)C(=O)N2C1N(C)C (stereo not given in full)	Non-Toxic
O=C(NCc1ccccc1Cl)[C@@H]1CCC(=O)N1Cc1ccc(Cl)cc1	Non-Toxic

test system: COLO 205; experiment: Cytotoxicity against human COLO205 cells assessed as effect on cell growth at 10 uM incubated for 48 hrs by sulforhodamine B assay; type: cell-based; settings: colo 205, 48 h

SMILES	Activity
CN1C(=O)CC[C@H]1C(=O)NCc1cccc(C(F)(F)F)c1Cl [GSK1482160]	Non-Toxic
CN(Cc1ccccc1)C(=O)[C@@H]1CCC(=O)N1Cc1ccc(Cl)cc1Cl	Non-Toxic
COc1ccccc1CN1C(=O)[C@@H]2C/C(=C\N(C)C)C(=O)N2C1N(C)C (stereo not given in full)	Non-Toxic
O=C(NCc1ccccc1Cl)[C@@H]1CCC(=O)N1Cc1ccc(Cl)cc1	Non-Toxic

test system: HT-29; experiment: Cytotoxicity against human HT-29 cells assessed as effect on cell growth at 10 uM incubated for 48 hrs by sulforhodamine B assay; type: cell-based; settings: ht-29, 48 h

SMILES	Activity
CN1C(=O)CC[C@H]1C(=O)NCc1cccc(C(F)(F)F)c1Cl [GSK1482160]	Non-Toxic
CN(Cc1ccccc1)C(=O)[C@@H]1CCC(=O)N1Cc1ccc(Cl)cc1Cl	Non-Toxic
COc1ccccc1CN1C(=O)[C@@H]2C/C(=C\N(C)C)C(=O)N2C1N(C)C (stereo not given in full)	Non-Toxic
O=C(NCc1ccccc1Cl)[C@@H]1CCC(=O)N1Cc1ccc(Cl)cc1	Non-Toxic

test system: IGROV-1; experiment: Cytotoxicity against human IGROV1 cells assessed as effect on cell growth at 10 uM incubated for 48 hrs by sulforhodamine B assay; type: cell-based; settings: igrov-1, 48 h

SMILES	Activity
CN1C(=O)CC[C@H]1C(=O)NCc1cccc(C(F)(F)F)c1Cl [GSK1482160]	Non-Toxic
CN(Cc1ccccc1)C(=O)[C@@H]1CCC(=O)N1Cc1ccc(Cl)cc1Cl	Non-Toxic
COc1ccccc1CN1C(=O)[C@@H]2C/C(=C\N(C)C)C(=O)N2C1N(C)C (stereo not given in full)	Non-Toxic
O=C(NCc1ccccc1Cl)[C@@H]1CCC(=O)N1Cc1ccc(Cl)cc1	Non-Toxic

test system: NCI-H522; experiment: Cytotoxicity against human NCI-H522 cells assessed as effect on cell growth at 10 uM incubated for 48 hrs by sulforhodamine B assay; type: cell-based; settings: nci-h522, 48 h

SMILES	Activity
CN1C(=O)CC[C@H]1C(=O)NCc1cccc(C(F)(F)F)c1Cl [GSK1482160]	Non-Toxic
CN(Cc1ccccc1)C(=O)[C@@H]1CCC(=O)N1Cc1ccc(Cl)cc1Cl	Non-Toxic
COc1ccccc1CN1C(=O)[C@@H]2C/C(=C\N(C)C)C(=O)N2C1N(C)C (stereo not given in full)	Non-Toxic
O=C(NCc1ccccc1Cl)[C@@H]1CCC(=O)N1Cc1ccc(Cl)cc1	Non-Toxic

test system: UACC-62; experiment: Cytotoxicity against human UACC62 cells assessed as effect on cell growth at 10 uM incubated for 48 hrs by sulforhodamine B assay; type: cell-based; settings: uacc-62, 48 h

SMILES	Activity
CN1C(=O)CC[C@H]1C(=O)NCc1cccc(C(F)(F)F)c1Cl [GSK1482160]	Non-Toxic
CN(Cc1ccccc1)C(=O)[C@@H]1CCC(=O)N1Cc1ccc(Cl)cc1Cl	Non-Toxic
COc1ccccc1CN1C(=O)[C@@H]2C/C(=C\N(C)C)C(=O)N2C1N(C)C (stereo not given in full)	Non-Toxic
O=C(NCc1ccccc1Cl)[C@@H]1CCC(=O)N1Cc1ccc(Cl)cc1	Non-Toxic

test system: SNB-19; experiment: Cytotoxicity against human SNB19 cells assessed as effect on cell growth at 10 uM incubated for 48 hrs by sulforhodamine B assay; type: cell-based; settings: snb-19, 48 h

SMILES	Activity
CN1C(=O)CC[C@H]1C(=O)NCc1cccc(C(F)(F)F)c1Cl [GSK1482160]	Non-Toxic
CN(Cc1ccccc1)C(=O)[C@@H]1CCC(=O)N1Cc1ccc(Cl)cc1Cl	Non-Toxic
COc1ccccc1CN1C(=O)[C@@H]2C/C(=C\N(C)C)C(=O)N2C1N(C)C (stereo not given in full)	Non-Toxic
O=C(NCc1ccccc1Cl)[C@@H]1CCC(=O)N1Cc1ccc(Cl)cc1	Non-Toxic

test system: NCI-H23; experiment: Cytotoxicity against human NCI-H23 cells assessed as effect on cell growth at 10 uM incubated for 48 hrs by sulforhodamine B assay; type: cell-based; settings: nci-h23, 48 h

SMILES	Activity
CN1C(=O)CC[C@H]1C(=O)NCc1cccc(C(F)(F)F)c1Cl [GSK1482160]	Non-Toxic
CN(Cc1ccccc1)C(=O)[C@@H]1CCC(=O)N1Cc1ccc(Cl)cc1Cl	Non-Toxic
COc1ccccc1CN1C(=O)[C@@H]2C/C(=C\N(C)C)C(=O)N2C1N(C)C (stereo not given in full)	Non-Toxic
O=C(NCc1ccccc1Cl)[C@@H]1CCC(=O)N1Cc1ccc(Cl)cc1	Non-Toxic

test system: HCT-116; experiment: Cytotoxicity against human HCT116 cells assessed as effect on cell growth at 10 uM incubated for 48 hrs by sulforhodamine B assay; type: cell-based; settings: hct-116, 48 h

SMILES	Activity
CN1C(=O)CC[C@H]1C(=O)NCc1cccc(C(F)(F)F)c1Cl [GSK1482160]	Non-Toxic
CN(Cc1ccccc1)C(=O)[C@@H]1CCC(=O)N1Cc1ccc(Cl)cc1Cl	Non-Toxic
COc1ccccc1CN1C(=O)[C@@H]2C/C(=C\N(C)C)C(=O)N2C1N(C)C (stereo not given in full)	Non-Toxic
O=C(NCc1ccccc1Cl)[C@@H]1CCC(=O)N1Cc1ccc(Cl)cc1	Non-Toxic

test system: TK-10; experiment: Cytotoxicity against human TK10 cells assessed as effect on cell growth at 10 uM incubated for 48 hrs by sulforhodamine B assay; type: cell-based; settings: tk-10, 48 h

SMILES	Activity
CN1C(=O)CC[C@H]1C(=O)NCc1cccc(C(F)(F)F)c1Cl [GSK1482160]	Non-Toxic
CN(Cc1ccccc1)C(=O)[C@@H]1CCC(=O)N1Cc1ccc(Cl)cc1Cl	Non-Toxic
COc1ccccc1CN1C(=O)[C@@H]2C/C(=C\N(C)C)C(=O)N2C1N(C)C (stereo not given in full)	Non-Toxic
O=C(NCc1ccccc1Cl)[C@@H]1CCC(=O)N1Cc1ccc(Cl)cc1	Non-Toxic

test system: PC-3; experiment: Cytotoxicity against human PC3 cells assessed as effect on cell growth at 10 uM incubated for 48 hrs by sulforhodamine B assay; type: cell-based; settings: pc-3, 48 h

SMILES	Activity
CN1C(=O)CC[C@H]1C(=O)NCc1cccc(C(F)(F)F)c1Cl [GSK1482160]	Non-Toxic
CN(Cc1ccccc1)C(=O)[C@@H]1CCC(=O)N1Cc1ccc(Cl)cc1Cl	Non-Toxic
COc1ccccc1CN1C(=O)[C@@H]2C/C(=C\N(C)C)C(=O)N2C1N(C)C (stereo not given in full)	Non-Toxic
O=C(NCc1ccccc1Cl)[C@@H]1CCC(=O)N1Cc1ccc(Cl)cc1	Non-Toxic

test system: NCI/ADR-RES; experiment: Cytotoxicity against human NCI/ADR-RES cells assessed as effect on cell growth at 10 uM incubated for 48 hrs by sulforhodamine B assay; type: cell-based; settings: not given

SMILES	Activity
CN1C(=O)CC[C@H]1C(=O)NCc1cccc(C(F)(F)F)c1Cl [GSK1482160]	Non-Toxic
CN(Cc1ccccc1)C(=O)[C@@H]1CCC(=O)N1Cc1ccc(Cl)cc1Cl	Non-Toxic
COc1ccccc1CN1C(=O)[C@@H]2C/C(=C\N(C)C)C(=O)N2C1N(C)C (stereo not given in full)	Non-Toxic
O=C(NCc1ccccc1Cl)[C@@H]1CCC(=O)N1Cc1ccc(Cl)cc1	Non-Toxic

test system: HOP-92; experiment: Cytotoxicity against human HOP92 cells assessed as effect on cell growth at 10 uM incubated for 48 hrs by sulforhodamine B assay; type: cell-based; settings: hop-92, 48 h

SMILES	Activity
CN1C(=O)CC[C@H]1C(=O)NCc1cccc(C(F)(F)F)c1Cl [GSK1482160]	Non-Toxic
CN(Cc1ccccc1)C(=O)[C@@H]1CCC(=O)N1Cc1ccc(Cl)cc1Cl	Non-Toxic
COc1ccccc1CN1C(=O)[C@@H]2C/C(=C\N(C)C)C(=O)N2C1N(C)C (stereo not given in full)	Non-Toxic
O=C(NCc1ccccc1Cl)[C@@H]1CCC(=O)N1Cc1ccc(Cl)cc1	Non-Toxic

test system: U-251; experiment: Cytotoxicity against human U251 cells assessed as effect on cell growth at 10 uM incubated for 48 hrs by sulforhodamine B assay; type: cell-based; settings: u-251, 48 h

SMILES	Activity
CN1C(=O)CC[C@H]1C(=O)NCc1cccc(C(F)(F)F)c1Cl [GSK1482160]	Non-Toxic
CN(Cc1ccccc1)C(=O)[C@@H]1CCC(=O)N1Cc1ccc(Cl)cc1Cl	Non-Toxic
COc1ccccc1CN1C(=O)[C@@H]2C/C(=C\N(C)C)C(=O)N2C1N(C)C (stereo not given in full)	Non-Toxic
O=C(NCc1ccccc1Cl)[C@@H]1CCC(=O)N1Cc1ccc(Cl)cc1	Non-Toxic

test system: Malme-3M; experiment: Cytotoxicity against human MALME-3M cells assessed as effect on cell growth at 10 uM incubated for 48 hrs by sulforhodamine B assay; type: cell-based; settings: not given

SMILES	Activity
CN1C(=O)CC[C@H]1C(=O)NCc1cccc(C(F)(F)F)c1Cl [GSK1482160]	Non-Toxic
CN(Cc1ccccc1)C(=O)[C@@H]1CCC(=O)N1Cc1ccc(Cl)cc1Cl	Non-Toxic
COc1ccccc1CN1C(=O)[C@@H]2C/C(=C\N(C)C)C(=O)N2C1N(C)C (stereo not given in full)	Non-Toxic
O=C(NCc1ccccc1Cl)[C@@H]1CCC(=O)N1Cc1ccc(Cl)cc1	Non-Toxic

From ChEMBL document CHEMBL4627246, “Pyroglutamide-Based P2X7 Receptor Antagonists Targeting Inflammatory Bowel Disease” (J Med Chem, 2020)
